Values quoted from earlier work as cited in US20230183218A1, “CONDENSED SUBSTITUTED HYDROPYRROLES AS ANTAGONISTS OF THE MUSCARINIC ACETYLCHOLINE RECEPTOR M4” (Vanderbilt University, priority 2020, published 2023).
Where two headings read alike, the source gives them in different places.

Tests used:
[1] = system: locomotor activity; settings: M4 knockout mice, but not the other four mAChR subtypes (M1-3,5); cited from earlier work
[2] = system: haloperidol-induced catalepsy; settings: cited from earlier work

CN1[C@@H]2C[C@@H](OC(=O)[C@H](CO)c3ccccc3)C[C@H]1[C@@H]1O[C@@H]12 [scopolamine]
locomotor-activating effects [1]: dramatically reduced | reversal of haloperidol-induced catalepsy ([2]; M4KO mice): ineffective in reducing catalepsy | reversal of haloperidol-induced catalepsy ([2]; WT mice): completely reversed
